Test results from US20160369115A1, “POLARIZING PLATE COMPOSITION, POLARIZING PLATE PROTECTIVE FILM, POLARIZER, POLARIZING PLATE, LIQUID CRYSTAL DISPLAY DEVICE, AND COMPOUND USED IN THE LIQUID CRYSTAL DISPLAY DEVICE” (FUJIFILM Corporation, priority 2014, published 2016).

Test: Solubility of additive in water
Format: physicochemical
Conditions: amount of the additive dissolving in 100 ml of pure water at 25° C.
Method: The amount of the additive dissolving in 100 ml of pure water at 25° C. was measured and evaluated according to the following criteria.

Row | SMILES | Solubility in water
1 | O=C([O-])c1ccc(Cc2c(OCOCc3ccccc3)n(-c3ccccc3)c(=O)n(-c3ccccc3)c2=O)cc1.[Na+] [Example compound O] | B (Equal to or greater than 1 g and less than 5 g)
2 | COC(=O)Cc1c(Cc2ccc(S(=O)(=O)[O-])cc2S(=O)(=O)[O-])c(=O)[nH]c2ccccc12.[Na+].[Na+] [Example compound AJ] | A (Equal to or greater than 5 g)
3 | COC(=O)Oc1[nH]c(=O)n(Cc2ccc(B(O)O)cc2)c(=O)c1Cc1ccc(S(=O)(=O)[O-])cc1S(=O)(=O)[O-].[Na+].[Na+] [Example compound AAL] | A (Equal to or greater than 5 g)
4 | COC(=O)Oc1c(Cc2ccccc2)c(=O)n(CS(=O)(=O)[O-])n1C.[Na+] [Example compound AH] | A (Equal to or greater than 5 g)
5 | [Cl-].[Cl-].[Zn+2] [ZnCl2, reference compound] | A (Equal to or greater than 5 g)
6 | Nc1c(F)c(F)c(C(=O)O)c(F)c1F [Organic acid 2, reference compound] | B (Equal to or greater than 1 g and less than 5 g)
7 | COC(=O)Oc1c(Cc2ccc(S(=O)(=O)[O-])cc2S(=O)(=O)[O-])c(=O)n(-c2ccccc2)c(=O)n1Cc1ccccc1.[Na+].[Na+] [Example compound B] | A (Equal to or greater than 5 g)
8 | O=C(Oc1c(Cc2ccccc2S(=O)(=O)[O-])c(=O)n(-c2ccccc2)c(=O)n1-c1ccccc1)OC1c2ccccc2-c2ccccc21.[Na+] [Example compound H] | B (Equal to or greater than 1 g and less than 5 g)
9 | CC(C)[Si](Oc1c(Cc2ccccc2)c(=O)n(CS(=O)(=O)[O-])c(=O)n1C)(C(C)C)C(C)C.[Na+] [Example compound L] | A (Equal to or greater than 5 g)
10 | O=C1NC(=O)N(Cc2ccccc2)C(=O)C1c1ccccc1 (stereo not drawn) [Organic acid 1, reference compound] | C (Less than 1 g.)
11 | COC(=O)Oc1[nH]c(=O)n(Cc2ccc(F)c(F)c2)c(=O)c1Cc1ccc(S(=O)(=O)[O-])cc1S(=O)(=O)[O-].[Na+].[Na+] [Example compound AAS] | A (Equal to or greater than 5 g)
12 | COC(=O)Oc1[nH]c(=O)n(CCCS(=O)(=O)[O-])c(=O)c1Cc1ccc(C=O)cc1.[Na+] [Example compound AAC] | A (Equal to or greater than 5 g)
13 | CCOC(=O)Oc1c(Cc2ccccc2S(=O)(=O)[O-])c(=O)n(-c2ccccc2)c(=O)n1-c1ccccc1.[Na+] [Example compound D] | A (Equal to or greater than 5 g)
14 | CCO[Si](CCCNC(=O)OCCn1c(=O)[nH]c(OC(=O)OC)c(Cc2ccc(S(=O)(=O)[O-])cc2S(=O)(=O)[O-])c1=O)(OCC)OCC.[Na+].[Na+] [Example compound AAP] | A (Equal to or greater than 5 g)
15 | COC(=O)Oc1[nH]c(=O)n(Cc2ccc(S(=O)(=O)[O-])cc2)c(=O)c1C=O.[Na+] [Example compound AAV] | A (Equal to or greater than 5 g)
